Calls of active or inactive are those of the source. The rule behind the calls is not given here.
Legend:
[1] = (§1) Cytotoxicity against african green monkey Vero cells after 16 hrs by MTT assay; assay type: cell-based, Chlorocebus sabaeus; conditions: chlorocebus sabaeus, Vero cells
[2] = biological target: T1, Glycoprotein G (Henipavirus nipahense) (UniProt Q9IH62); assay type: cell-based; conditions: Vero, 10 to 200 uM
T1 sequence (whole entry): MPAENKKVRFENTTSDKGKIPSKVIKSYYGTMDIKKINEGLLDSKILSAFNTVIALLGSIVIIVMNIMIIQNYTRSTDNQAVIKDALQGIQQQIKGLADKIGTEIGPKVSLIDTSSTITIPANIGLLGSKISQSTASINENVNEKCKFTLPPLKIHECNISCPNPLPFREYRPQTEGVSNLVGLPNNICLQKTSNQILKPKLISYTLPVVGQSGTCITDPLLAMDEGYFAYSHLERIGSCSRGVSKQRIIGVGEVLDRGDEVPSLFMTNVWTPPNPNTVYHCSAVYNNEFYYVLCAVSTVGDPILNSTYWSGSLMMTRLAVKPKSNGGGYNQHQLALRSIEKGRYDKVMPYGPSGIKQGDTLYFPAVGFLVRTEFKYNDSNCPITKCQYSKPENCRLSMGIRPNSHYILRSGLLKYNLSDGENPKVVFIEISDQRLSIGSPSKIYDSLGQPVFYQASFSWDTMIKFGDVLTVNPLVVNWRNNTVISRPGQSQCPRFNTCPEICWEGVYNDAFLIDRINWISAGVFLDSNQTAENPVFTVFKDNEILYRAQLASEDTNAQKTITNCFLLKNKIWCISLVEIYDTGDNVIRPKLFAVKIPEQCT

[3] = system: Vero; assay type: cell-based; conditions: Measles morbillivirus, 10 to 200 uM
[4] = system: Vero; assay: Cytotoxicity against african green monkey Vero cells at 10 to 200 uM after 16 hrs by MTT assay; assay type: cell-based; conditions: chlorocebus sabaeus
[5] = Selectivity index, CC50 for african green monkey Vero cells to EC50 for Measles virus hemagglutininin/F-mediated cell-cell fusion; assay type: toxicity, cell-based; conditions: read-out: Ratio CC50/EC50
[6] = biological target: T2, Glycoprotein G (Henipavirus nipahense, UniProt Q9IH62); assay type: cell-based; conditions: vero
T2 sequence (Q9IH62 whole entry): T1 sequence (whole entry)

[7] = system: Nipah virus; assay: Inhibition of Nipah virus-mediated cell fusion infected in african green monkey Vero cells assessed as reduction in virus-induced syncytium formation after 24 hrs relative to control; assay type: functional, organism-based; conditions: Henipavirus nipahense
[8] = system: Vero; assay: as §1; assay type: cell-based, Chlorocebus sabaeus; conditions: Chlorocebus sabaeus, Vero, 16 h

Row | Compound | CC50 at 16 h [1] | Activity [2] | Activity [3] | Activity [4] | further results
1 | CCOC(=O)N1CCN(c2cc3c(cc2F)c(=O)c(C(=O)NCc2ccc(Cl)cc2Cl)cn3C2CC2)CC1 | 15 µM | – | – | – | –
2 | CCn1cc(C(=O)NCC2CC2)c(=O)c2cc(F)ccc21 | – | inactive | inactive | Not Active | –
3 | CCn1cc(C(=O)Nc2ccccc2CO)c(=O)c2ccc(C(F)(F)F)cc21 | – | inactive | inactive | Not Active | –
4 | CCn1cc(C(=O)NCc2ccc(N)cc2)c(=O)c2cc(F)ccc21 | – | inactive | inactive | Not Active | –
5 | CCn1cc(C(=O)NCc2ccc(Cl)cc2)c(=O)c2ccc(C(F)(F)F)cc21 | > 20 µM | – | – | – | selectivity ratio [5]: > 10
6 | CCn1cc(C(=O)NCC2CC2)c(=O)c2cc(C(F)(F)F)ccc21 | – | inactive | inactive | Not Active | –
7 | CCn1cc(C(=O)NCc2ccccn2)c(=O)c2cc(F)ccc21 | – | inactive | inactive | Not Active | –
8 | CCn1cc(C(=O)Nc2ccc(F)c(Cl)c2)c(=O)c2ccc(C(F)(F)F)cc21 | > 20 µM | – | – | – | EC50 [6]: Not Active
9 | C=CCN1[C@@H](c2ccc([N+](=O)[O-])cc2)C(C(=O)OCC)=C(O)C(C(=O)OCC)[C@@H]1c1ccc([N+](=O)[O-])cc1 (some centres not stated) | > 20 µM | – | – | – | –
10 | CCOC(=O)N1CCN(c2cc3c(cc2F)c(=O)c(C(=O)NCc2ccc(Cl)cc2Cl)cn3CC)CC1 | > 20 µM | – | – | – | –
11 | CCn1cc(C(=O)NCc2ccccn2)c(=O)c2cc(C(F)(F)F)ccc21 | – | inactive | inactive | Not Active | –
12 | NC(=O)C1CCN(c2cc3c(cc2F)c(=O)c(C(=O)NCc2ccc(Cl)cc2Cl)cn3C2CC2)CC1 | > 20 µM | – | – | – | Activity [7]: Dose-dependent effect
13 | CCn1cc(C(=O)NCc2ccc(OC)cc2)c(=O)c2cc(C(F)(F)F)ccc21 | – | inactive | inactive | Not Active | –
14 | CCn1cc(C(=O)NCc2ccc(N)cc2)c(=O)c2cc(C(F)(F)F)ccc21 | – | inactive | inactive | Not Active | –
15 | CCOC(=O)C1CCN(c2cc3c(cc2F)c(=O)c(C(=O)NCc2ccc(Cl)cc2Cl)cn3CC)CC1 | 10 µM | – | – | – | Activity [7]: Dose-dependent effect
16 | CCOC(=O)C1CCN(c2cc3c(cc2F)c(=O)c(C(=O)O)cn3CC)CC1 | – | inactive | inactive | Not Active | –
17 | Nc1ccc2oc(Cc3ccccc3)nc2c1 | – | – | – | – | EC50 [8]: 8 µM; selectivity ratio [5]: 20; Activity [7]: Dose-dependent effect
18 | NC(=O)C1CCN(c2cc3c(cc2F)c(=O)c(C(=O)O)cn3C2CC2)CC1 | – | inactive | inactive | Not Active | –
19 | CCn1cc(C(=O)NCc2ccc(OC)cc2)c(=O)c2cc(F)c(Cl)cc21 | – | inactive | inactive | Not Active | –

From ChEMBL document CHEMBL1158450, “A small-molecule inhibitor of Nipah virus envelope protein-mediated membrane fusion” (J Med Chem, 2009)
